A word on the GI50: it is the concentration giving 50% growth inhibition. Higher therefore signals lower sensitivity of the cells.

Consider 24 compounds from patent US9745266B2 (THE REGENTS OF THE UNIVERSITY OF COLORADO, A BODY CORPORATE, priority 2013, dated 2017).

In brackets after ≈: the same amount, converted by molar mass.

This data set is described as follows: Mammalian cytotoxicity, CellTiter-Glo viability assay. The settings on record: human, HeLa cells. The data set is classed as cell-based, human. On the procedure:
To evaluate the cytotoxicity of Of1 in mammalian cells, a cell viability assay was carried out using CellTiter-Glo luminescent cell viability assay kit (Promega). Human cervixcal adenocarcinoma HeLa cells were seeded on white, cell-culture treated 96-well plates (Corning: 3917) with Dulbecco's modified Eagle's medium (DMEM) supplemented with 10% fetal calf serum (FCS), 1% penicillin/streptomycin, at the densities of 20,000 cells/well. The medium volume for each well was 100 μL. Cells were incubated at 37° C. in 5% CO2/95% air for 16 hours. The medium was removed from each well and replaced with 99 μL of warmed fresh medium. To each well, 1 μL of Of1 analog was added in DMSO to final concentrations of 0.5-32 μg/mL. Each series was performed in triplicate. After incubation at 37° C. for another 24 hours, the plates were equilibrated to room temperature for 30 minutes. 100 μL of CellTiter-Glo reagent (Promega) was added to each well and mixed for 2 minutes on an orbital shaker. The plate was incubated at room temperature for another 10 minutes to stabilize luminescent signal. The luminescence of each sample was recorded in an Envision Multilabel Plate Reader (Perkin Elmer).
For orientation: In ATP-based viability assays light output follows the ATP content of the culture.
The compound `C=C1CCC[C@@H]2Nc3c(F)cc(Br)cc3[C@]12CCNS(=O)(=O)c1ccc(OC(F)F)c(Cl)c1` (relative stereo) came in with a GI50 at 24 h of 15.4 µg/mL (≈ 27.2 µM). The result for `C=C1CCCC2Nc3ccc(Cl)cc3C12CCNS(=O)(=O)c1ccc(Cl)cc1` (stereo not drawn) [Cpd 6a, 4-Chloro-N-[2-(6-chloro-4-methylidene-2,3,4,4a,9,9a-hexahydro-1H-carbazol-4a-yl)ethyl]benzene-1-sulfonamide] reads 35 µg/mL (≈ 80 µM); that for `C=C1CCCC2Nc3c(Cl)cc(Cl)cc3C12CCNS(=O)(=O)c1ccc(Cl)cc1` (stereo not drawn) [Cpd 6k, 4-Chloro-N-[2-(6,8-dichloro-4-methylidene-2,3,4,4a,9,9a-hexahydro-1H-carbazol-4a-yl)ethyl]benzene-1-sulfonamide], 13.6 µg/mL (≈ 28.8 µM); that for `C=C1CCCC2Nc3c(F)cc(Br)cc3C12CCNS(=O)(=O)c1ccc(Cl)cc1` (stereo not drawn) [Cpd 6l, N-[2-(6-bromo-8-fluoro-4-methylidene-2,3,4,4a,9,9a-hexahydro-1H-carbazol-4a-yl)ethyl]-4-chlorobenzene-1-sulfonamide], 18.1 µg/mL (≈ 36.2 µM). The result for `C=C1CCCC2Nc3ccc(Br)cc3C12CCNS(=O)(=O)c1ccc(Br)cc1` (stereo not drawn) [Cpd 12g, 4-Bromo-N-[2-(6-bromo-4-methylidene-2,3,4,4a,9,9a-hexahydro-1H-carbazol-4a-yl)ethyl]benzene-1-sulfonamide] reads 40 µg/mL (≈ 76 µM); that for `C=C1CCCC2Nc3ccc(Br)cc3C12CCNS(=O)(=O)c1ccc(I)cc1` (stereo not drawn) [Cpd 12h, N-[2-(6-bromo-4-methylidene-2,3,4,4a,9,9a-hexahydro-1H-carbazol-4a-yl)ethyl]-4-iodobenzene-1-sulfonamide], 33 µg/mL (≈ 57.6 µM). The result for `C=C1CCCC2Nc3ccc(Br)cc3C12CCNS(=O)(=O)c1ccc(Cl)c(Cl)c1` (stereo not drawn) [Cpd 12i, N-[2-(6-bromo-4-methylidene-2,3,4,4a,9,9a-hexahydro-1H-carbazol-4a-yl)ethyl]-3,4-dichlorobenzene-1-sulfonamide] reads 12.8 µg/mL (≈ 24.8 µM); that for `C=C1CCCC2Nc3c(F)cc(Br)cc3C12CCNS(=O)(=O)c1ccc(OC)cc1` (stereo not drawn) [Cpd 13a, N-[2-(6-bromo-8-fluoro-4-methylidene-2,3,4,4a,9,9a-hexahydro-1H-carbazol-4a-yl)ethyl]-4-methoxybenzene-1-sulfonamide], 49 µg/mL (≈ 98.9 µM); that for `C=C1CCCC2Nc3c(F)cc(Br)cc3C12CCNS(=O)(=O)c1ccc(C)cc1` (stereo not drawn) [Cpd 13b, N-[2-(6-bromo-8-fluoro-4-methylidene-2,3,4,4a,9,9a-hexahydro-1H-carbazol-4a-yl)ethyl]-4-methylbenzene-1-sulfonamide], 22 µg/mL (≈ 45.9 µM). In turn, `C=C1CCCC2Nc3c(F)cc(Br)cc3C12CCNS(=O)(=O)c1ccc(F)cc1` (stereo not drawn) [Cpd 13c, N-[2-(6-bromo-8-fluoro-4-methylidene-2,3,4,4a,9,9a-hexahydro-1H-carbazol-4a-yl)ethyl]-4-fluorobenzene-1-sulfonamide] had a GI50 at 24 h of 18.3 µg/mL (≈ 37.9 µM). As for `C=C1CCCC2Nc3c(F)cc(Br)cc3C12CCNS(=O)(=O)c1ccc(Br)cc1` (stereo not drawn) [Cpd 13d, 4-Bromo-N-[2-(6-bromo-8-fluoro-4-methylidene-2,3,4,4a,9,9a-hexahydro-1H-carbazol-4a-yl)ethyl]benzene-1-sulfonamide], the GI50 at 24 h was found to be 22 µg/mL (≈ 40.4 µM). For the compound `C=C1CCCC2Nc3c(F)cc(Br)cc3C12CCNS(=O)(=O)c1ccc(I)cc1` (stereo not drawn) [Cpd 13e, N-[2-(6-bromo-8-fluoro-4-methylidene-2,3,4,4a,9,9a-hexahydro-1H-carbazol-4a-yl)ethyl]-4-iodobenzene-1-sulfonamide], the GI50 at 24 h stood at 19.6 µg/mL (≈ 33.1 µM). Turning to `C=C1CCCC2Nc3c(F)cc(Br)cc3C12CCNS(=O)(=O)c1ccc(Cl)c(Cl)c1` (stereo not drawn) [Cpd 13f, N-[2-(6-bromo-8-fluoro-4-methylidene-2,3,4,4a,9,9a-hexahydro-1H-carbazol-4a-yl)ethyl]-3,4-dichlorobenzene-1-sulfonamide], it took 31 µg/mL (≈ 58 µM) to inhibit growth by half (GI50 at 24 h). In the case of `C=C1CCCC2Nc3c(F)cc(Br)cc3C12CCNS(=O)(=O)c1ccc(NC(C)=O)cc1` (stereo not drawn) [Cpd 13g, N-(4-{[2-(6-bromo-8-fluoro-4-methylidene-2,3,4,4a,9,9a-hexahydro-1H-carbazol-4a-yl)ethyl]sulfamoyl}phenyl)acetamide] it was 32 µg/mL (≈ 61.3 µM); in that of `C=C1CCCC2Nc3c(F)cc(Br)cc3C12CCNS(=O)(=O)c1ccc(C#N)cc1` (stereo not drawn) [Cpd 13h, N-[2-(6-bromo-8-fluoro-4-methylidene-2,3,4,4a,9,9a-hexahydro-1H-carbazol-4a-yl)ethyl]-4-cyanobenzene-1-sulfonamide], 17 µg/mL (≈ 34.7 µM). In the case of `C=C1CCCC2Nc3c(F)cc(Br)cc3C12CCNS(=O)(=O)c1ccc(C(F)(F)F)cc1` (stereo not drawn) [Cpd 13i, N-[2-(6-bromo-8-fluoro-4-methylidene-2,3,4,4a,9,9a-hexahydro-1H-carbazol-4a-yl)ethyl]-4-(trifluoromethyl)benzene-1-sulfonamide] it was 8.7 µg/mL (≈ 16.3 µM). The result for `C=C1CCCC2Nc3c(F)cc(Br)cc3C12CCNS(=O)(=O)c1ccc(Br)c(Br)c1` (stereo not drawn) [Cpd 13j, 3,4-Dibromo-N-[2-(6-bromo-8-fluoro-4-methylidene-2,3,4,4a,9,9a-hexahydro-1H-carbazol-4a-yl)ethyl]benzene-1-sulfonamide] reads 20 µg/mL (≈ 32.1 µM); that for `C=C1CCCC2Nc3c(F)cc(Br)cc3C12CCNS(=O)(=O)c1ccc(Br)c(F)c1` (stereo not drawn) [Cpd 13k, 4-Bromo-N-[2-(6-bromo-8-fluoro-4-methylidene-2,3,4,4a,9,9a-hexahydro-1H-carbazol-4a-yl)ethyl]-3-fluorobenzene-1-sulfonamide], 17.5 µg/mL (≈ 31.1 µM). Compound `C=C1CCCC2Nc3c(F)cc(Br)cc3C12CCNS(=O)(=O)c1ccc(Br)cc1C(F)(F)F` (stereo not drawn) [Cpd 13l, 4-Bromo-N-[2-(6-bromo-8-fluoro-4-methylidene-2,3,4,4a,9,9a-hexahydro-1H-carbazol-4a-yl)ethyl]-2-(trifluoromethyl)benzene-1-sulfonamide] had a GI50 at 24 h of 21 µg/mL (≈ 34.3 µM). In the case of `C=C1CCCC2Nc3c(F)cc(Br)cc3C12CCNS(=O)(=O)c1ccc(Br)c(C(F)(F)F)c1` (stereo not drawn) [Cpd 13m, 4-Bromo-N-[2-(6-bromo-8-fluoro-4-methylidene-2,3,4,4a,9,9a-hexahydro-1H-carbazol-4a-yl)ethyl]-3-(trifluoromethyl)benzene-1-sulfonamide] it was 8.3 µg/mL (≈ 13.6 µM); in that of `C=C1CCCC2Nc3c(F)cc(Br)cc3C12CCNS(=O)(=O)c1ccc(Br)cc1C` (stereo not drawn) [Cpd 13n, 4-bromo-N-[2-(6-bromo-8-fluoro-4-methylidene-2,3,4,4a,9,9a-hexahydro-1H-carbazol-4a-yl)ethyl]-2-methylbenzene-1-sulfonamide], 13.5 µg/mL (≈ 24.2 µM); in that of `C=C1CCCC2Nc3c(F)cc(Br)cc3C12CCNS(=O)(=O)c1ccc(Br)c(C)c1` (stereo not drawn) [Cpd 13o, 4-bromo-N-[2-(6-bromo-8-fluoro-4-methylidene-2,3,4,4a,9,9a-hexahydro-1H-carbazol-4a-yl)ethyl]-3-methylbenzene-1-sulfonamide], 12.5 µg/mL (≈ 22.4 µM). In the case of `C=C1CCCC2Nc3c(F)cc(Br)cc3C12CCNS(=O)(=O)c1cc(Br)c(Br)s1` (stereo not drawn) [Cpd 13p, 4,5-dibromo-N-[2-(6-bromo-8-fluoro-4-methylidene-2,3,4,4a,9,9a-hexahydro-1H-carbazol-4a-yl)ethyl]thiophene-2-sulfonamide] it was 14.6 µg/mL (≈ 23.2 µM); in that of `C=C1CCCC2Nc3c(F)cc(Br)cc3C12CCNS(=O)(=O)c1cncc(Br)c1` (stereo not drawn) [Cpd 13q, 5-bromo-N-[2-(6-bromo-8-fluoro-4-methylidene-2,3,4,4a,9,9a-hexahydro-1H-carbazol-4a-yl)ethyl]pyridine-3-sulfonamide], 11.2 µg/mL (≈ 20.5 µM).
